Laboratory results taken from patent US10071964B2, “Disubstituted piperidines as butyrylcholinesterase inhibitors” (priority 2015, dated 2018).

Experiments:
[1] = target: T1, murine acetylcholinesterase (mAChE) (Mus musculus, UniProt P21836); experiment: Ellman's method enzyme assay, mAChE inhibition; type: biochemical; settings: for % inhibition at 10 μM mAChE: Table 2, formula (II), 10 μM compound, n.i. = no inhibition
T1 sequence (P21836 32-614): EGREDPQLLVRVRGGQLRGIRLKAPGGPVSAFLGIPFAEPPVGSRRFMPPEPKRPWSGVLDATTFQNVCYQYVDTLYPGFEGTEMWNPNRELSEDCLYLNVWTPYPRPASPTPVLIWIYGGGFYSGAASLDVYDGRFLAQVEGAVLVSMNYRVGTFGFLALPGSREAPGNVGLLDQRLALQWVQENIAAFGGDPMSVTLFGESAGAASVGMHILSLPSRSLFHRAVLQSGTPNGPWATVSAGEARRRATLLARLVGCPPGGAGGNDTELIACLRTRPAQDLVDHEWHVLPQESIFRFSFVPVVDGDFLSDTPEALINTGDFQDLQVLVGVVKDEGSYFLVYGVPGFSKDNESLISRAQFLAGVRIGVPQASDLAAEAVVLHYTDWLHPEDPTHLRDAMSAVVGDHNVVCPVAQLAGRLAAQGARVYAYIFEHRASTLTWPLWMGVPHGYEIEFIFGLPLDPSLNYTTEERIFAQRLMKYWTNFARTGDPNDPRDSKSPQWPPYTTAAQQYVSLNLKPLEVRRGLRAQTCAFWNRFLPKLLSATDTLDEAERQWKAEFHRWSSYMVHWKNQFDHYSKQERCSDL
Description: (§1) Ellman's method was used to evaluate the inhibitory activities of the synthesized compounds against the cholinesterases. […] As a substrate butyrylthiocholine (BTC) and acetylthiocholine (ATC) iodides were used for BChE and AChE, respectively. […] For the reference sample, 1% dimethylsulfoxide (DMSO) replaced the inhibitor's solution.
(§2) Potency of the inhibitor is expressed as a residual activity (RA) of the enzyme at the employed inhibitor's concentration, half maximal inhibitory concentration (IC50 value) and as an inhibition constant (Ki).
(§3) The enzyme reactions were carried out using murine acetylcholinesterase (mAChE) and human recombinant butyrylcholinesterase (huBChE). From the lyophilised powders of both enzymes, the solutions were obtained by dissolution of the powders in 10 mM MES buffer (pH 6.5) to reach the concentration of 4 mg/mL. The concentrated enzyme solution was diluted prior use in 100 mM phosphate buffer (pH 8.0) to reach the activity of the enzyme in the assay of approximately 500 mAu per minute.
(§4) ATCI in BTCI solutions were prepared in 100 mM phosphate buffer (pH 8.0) to reach the final concentration in the assay of 500 μM.
Stock solutions of compounds were prepared in DMSO in a concentration of 10 mM.
(§5) Enzyme solutions were prepared by dilution of the concentrated stocks in the 100 mM phosphate buffer (pH 8.0). […] Enzyme reaction was started with the addition of the substrate. The DMSO concentration in the test solution was always 1%. […] For the determination of blank (b) the phosphate buffer replaced the enzyme solution. Initial velocity of the enzyme reaction (v0) was determined from the linear curve of the enzyme reaction product formation, where each measurement was performed in triplicate. For the initial screening of inhibition ability, […] concentration of the investigated compounds was used. Compounds were pipetted in the corresponding wells to reach the final concentration of 10 μM. Tested compound and the enzyme solution were first preincubated for 300s, followed by the substrate addition, which triggered the enzyme reaction. The initial velocity in presence of the inhibitor was further calculated (vi). The inhibition capability was expressed as residual activity (RA=(vi−b)/(vo−b)).
(§6) IC50 values were determined by plotting the RA versus the concentration of the investigated compound.
(§7) Where X is a common logarithm of the concentration of the inhibitor and Y is the residual activity. For solving the equation Gnuplot software and an in-house python script were used. For the determination of the inhibition constant full progress curves of the product formation in presence and absence of investigated compounds were monitored. The curves were submitted in the ENZO web-application, which allows solving of numerical equations.

[2] = target: human recombinant butyrylcholinesterase (huBChE) (Homo sapiens, UniProt P06276); experiment: biochemical; settings: read-out: IC50 ± STD (μM) huBChE
Description: as §1, §2, §3, §4, §5, §6, §7

Chain of human recombinant butyrylcholinesterase (huBChE) (P06276 29-602): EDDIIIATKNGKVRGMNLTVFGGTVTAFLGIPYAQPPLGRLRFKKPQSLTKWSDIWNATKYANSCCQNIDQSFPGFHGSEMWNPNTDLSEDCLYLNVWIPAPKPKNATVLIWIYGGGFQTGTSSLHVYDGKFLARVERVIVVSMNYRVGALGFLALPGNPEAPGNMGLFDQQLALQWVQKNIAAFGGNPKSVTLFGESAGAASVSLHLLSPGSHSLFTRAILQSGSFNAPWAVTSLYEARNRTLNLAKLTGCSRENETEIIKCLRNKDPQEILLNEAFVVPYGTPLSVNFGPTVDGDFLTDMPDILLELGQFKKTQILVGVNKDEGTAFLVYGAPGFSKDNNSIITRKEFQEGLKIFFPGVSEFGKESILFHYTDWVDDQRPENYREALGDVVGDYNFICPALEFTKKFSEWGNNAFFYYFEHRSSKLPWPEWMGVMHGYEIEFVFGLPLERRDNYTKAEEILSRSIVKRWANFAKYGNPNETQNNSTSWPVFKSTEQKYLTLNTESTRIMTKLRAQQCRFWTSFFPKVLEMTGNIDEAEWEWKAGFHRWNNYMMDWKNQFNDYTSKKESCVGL

CN(C)CCN(CC1CCCN(C2Cc3ccccc3C2)C1)C(=O)c1ccc2ccccc2c1 (centres unmarked)
inhibition at 10 µM ([1]; read-out: % inhibition ± STD at 10 μM inhibitor mAChE, Table 1, formula (I), 10 μM inhibitor): 17.4 ± 3.7%

COCCN(CC1CCCN(C2Cc3ccccc3C2)C1)S(=O)(=O)c1ccc2ccccc2c1 (centres unmarked)
% inhibition at 10 μM mAChE [1]: 72 ± 0.86%

COCCN(CC1CCCN(C2Cc3ccccc3C2)C1)S(=O)(=O)c1ccccc1 (centres unmarked)
IC50 [2]: 0.343 ± 0.005 µM
% inhibition at 10 μM mAChE [1]: n.i.

COCCN(CC1CCCN(C2Cc3ccccc3C2)C1)S(=O)(=O)c1ccc(C)cc1 (centres unmarked)
IC50 [2]: 0.279 ± 0.008 µM
% inhibition at 10 μM mAChE [1]: n.i.

COCCN(CC1CCCN(C2Cc3ccccc3C2)C1)S(=O)(=O)c1ccc(F)cc1 (centres unmarked)
IC50 [2]: 0.887 ± 0.08 µM
% inhibition at 10 μM mAChE [1]: n.i.

COCCN(CC1CCCN(C2Cc3ccccc3C2)C1)S(=O)(=O)c1ccc(OC)cc1 (centres unmarked)
IC50 [2]: 0.482 ± 0.066 µM
% inhibition at 10 μM mAChE [1]: n.i.

COCCN(CC1CCCN(C2Cc3ccccc3C2)C1)S(=O)(=O)c1ccc([N+](=O)[O-])cc1 (centres unmarked)
IC50 [2]: 3.47 ± 0.052 µM
% inhibition at 10 μM mAChE [1]: n.i.

COCCN(CC1CCCN(C2Cc3ccccc3C2)C1)S(=O)(=O)c1ccc(N)cc1 (centres unmarked)
IC50 [2]: 0.314 ± 0.036 µM
% inhibition at 10 μM mAChE [1]: n.i.

COCCN(CC1CCCN(C2Cc3ccccc3C2)C1)S(=O)(=O)c1ccc(NC(C)=O)cc1 (centres unmarked)
IC50 [2]: 0.321 ± 0.035 µM
% inhibition at 10 μM mAChE [1]: n.i.

COCCN(CC1CCCN(C2Cc3ccccc3C2)C1)S(=O)(=O)c1cccc([N+](=O)[O-])c1 (centres unmarked)
IC50 [2]: 3.61 ± 0.528 µM

COCCN(CC1CCCN(C2Cc3ccccc3C2)C1)S(=O)(=O)c1cccc(N)c1 (centres unmarked)
% inhibition at 10 μM mAChE [1]: n.i.

COCCN(CC1CCCN(C2Cc3ccccc3C2)C1)S(=O)(=O)c1cccc(NC(C)=O)c1 (centres unmarked)
IC50 [2]: 8.21 ± 0.601 µM
% inhibition at 10 μM mAChE [1]: n.i.

COCCN(CC1CCCN(C2Cc3ccccc3C2)C1)S(=O)(=O)c1ccccc1C(=O)OC (centres unmarked)
IC50 [2]: 0.359 ± 0.018 µM
% inhibition at 10 μM mAChE [1]: n.i.

CNC(=O)c1ccccc1S(=O)(=O)N(CCOC)CC1CCCN(C2Cc3ccccc3C2)C1 (centres unmarked)
IC50 [2]: 3.23 ± 0.492 µM
% inhibition at 10 μM mAChE [1]: n.i.

COCCN(CC1CCCN(Cc2ccccc2)C1)S(=O)(=O)c1ccc2ccccc2c1 (centres unmarked)
% inhibition at 10 μM mAChE [1]: n.i.

COCCN(CC1CCCN(Cc2ccc(F)cc2)C1)S(=O)(=O)c1ccc2ccccc2c1 (centres unmarked)
IC50 [2]: 0.231 ± 0.006 µM
% inhibition at 10 μM mAChE [1]: n.i.

COCCN(CC1CCCN(Cc2cccc(F)c2)C1)S(=O)(=O)c1ccc2ccccc2c1 (centres unmarked)
IC50 [2]: 0.0491 ± 0.0012 µM
% inhibition at 10 μM mAChE [1]: n.i.

COCCN(CC1CCCN(Cc2ccc(C#N)cc2)C1)S(=O)(=O)c1ccc2ccccc2c1 (centres unmarked)
IC50 [2]: 1.46 ± 0.115 µM
% inhibition at 10 μM mAChE [1]: n.i.

COCCN(CC1CCCN(Cc2cccc(C#N)c2)C1)S(=O)(=O)c1ccc2ccccc2c1 (centres unmarked)
IC50 [2]: 0.338 ± 0.008 µM
% inhibition at 10 μM mAChE [1]: n.i.

COCCN(CC1CCCN(Cc2ccc(N(C)C)cc2)C1)S(=O)(=O)c1ccc2ccccc2c1 (centres unmarked)
IC50 [2]: 0.311 ± 0.022 µM
% inhibition at 10 μM mAChE [1]: n.i.
